Marks after values point to notes of the source that are not given here.
Assays:
[1] = tested on: TPA induced chronic skin inflammation; experiment: Example E: TPA induced chronic skin inflammation mouse model, ear thickness; assay type: in vivo; conditions: day 22, 0.05 mg/ear daily topical from day 7, TPA-treated mice
Text: Objective: To evaluate the anti-inflammatory properties of compounds of the invention in a 12-O-tetradecanoylphorbol-13-acetate (TPA) induced chronic skin inflammation mouse model.
Topically applied phorbol esters such as TPA induce skin inflammation involving edema, macrophage and T cell infiltration and epidermal hyperplasia (Alford et al., 1992), and this system has been used as an animal model for dermatitis, mimicking aspects of human inflammatory skin disorders. TPA is also known as a tumor promoter, so that agents which inhibit hyperproliferative or angiogenic actions of TPA may inhibit tumor promotion.
Drug formulations: Compound AC was dissolved in isopropyl myristate:propylene glycol (1:1)+0.9% DMSO at the indicated concentrations. TPA was dissolved in acetone:water (99:1). Dexamethasone (0.06%) was dissolved in normal saline.
Mice: HSD-ICR(CD-1R) female mice at 8-10 weeks of age were used in this experiment.
Experimental Design: Mice were placed into six groups of 10 mice each. 20 μL of 0.01% TPA was administered to each ear on days 0, 2, 4, 7, 9, 11, 13, 15, 18, 20, and 22. 20 μL of AC at various concentrations or 20 μL of dexamethasone solution was applied to the ears daily beginning on day 7, after inflammatory changes in ear thickness were established. Ear thickness was measured with calipers every three days.

[2] = tested on: imiquimod-induced dermatitis
Procedure: Topical imiquimod (IMQ), a toll-like receptor agonist, has been established as a model of Inflammatory skin diseases including psoriasis and atopic dermatitis. Dermal inflammatory changes and gene expression in mice treated with topical imiquimod mimic human psoriasis and dermatitis (van der Fits et al., 2009; Swindell et al., 2011). The effect of a set of compounds of the invention were tested in a mouse model of imiquimod-induced dermatitis, with topical tacrolimus and dexamethasone as comparators for assessing safety and efficacy relative to standard agents used to treat dermatitis in humans.
Commercial 0.1% tacrolimus ointment (ProTopic™[…]) was also used as an active comparator. Petrolatum containing 10% ethanol was used as a control treatment.
Female Balb/C mice (8 weeks old) were randomized and divided into groups of 5 animals each. Polyethylene collars were affixed to the mice to prevent them from easily scratching their ears. 5% imiquimod was applied to both ears of each mouse (20 microliters per ear) daily for 5 days, and then every other day for the full duration of the study. […] On day 7 after initiation of imiquimod, treatment with topical agents was started. Both ears of each mouse were treated with test ointments, with one compound per mouse.
Ear thickness and PASI assessments (Psoriasis Area and Severity Index, a standard psoriasis scoring system) were recorded twice per week throughout the study. The PASI score comprises the sum of evaluations of swelling, erythema and scaling on scales from 0 to 4; the maximum PASI score is 12, and the minimum, in unaffected skin, is 0).

D BW (g) ([2]; mouse, in vivo): −2.4 * g | Hair growth on the imiquimod-affected head area, in words ([2]; mouse, in vivo): remained hairless
Structure (SMILES): C[C@@H]1C[C@H]2[C@@H]3CCC4=CC(=O)C=C[C@]4(C)[C@@]3(F)[C@@H](O)C[C@]2(C)[C@@]1(O)C(=O)CO [Dexamethasone, reference compound]
Ear thickness (mm) [1]: 0.301 ± 0.0722 mm | Ear thickness, Mean ± SEM ([2]; imiquimod-treated mice, topical ointment 0.06% active drug (dexamethasone 0.03%, tacrolimus 0.1%)): 0.305 ± 0.111 | Body Weight (mean ± SEM), Final ([2]; mouse, in vivo): 18.1 ± 0.5 g | Body Weight (mean ± SEM), Initial ([2]; mouse, in vivo): 20.5 ± 0.6 g | PASI Score, Mean ± SEM ([2]; scale 0-12, topical ointment 0.06% active drug (dexamethasone 0.03%, tacrolimus 0.1%)): 4.525 ± 0.375
